Tests used:
Experiment in all cases: relative viability (nuclei count vs DMSO), 5 days (fraction); higher = more cells survive
Sunitinib + Decitabine = compound: CCN(CC)CCNC(=O)c1c(C)[nH]c(/C=C2\C(=O)Nc3ccc(F)cc32)c1C [Sunitinib] + Nc1ncn([C@H]2C[C@H](O)[C@@H](CO)O2)c(=O)n1 [Decitabine] (partner 2 µM)
Outline: (§1)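 Medians of duplicate plates are given as relative viability. That measure is the nuclei count in treated wells divided by the count in vehicle wells. Counts were taken on 4× images of lung cancer cell lines in 1536-well plates, 5 days after pin-tool dosing the day after seeding with one drug alone or a fixed anchor-drug dose plus five library-drug doses (not always all listed) in √10 steps.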

Sunitinib + Tozasertib = compound: CCN(CC)CCNC(=O)c1c(C)[nH]c(/C=C2\C(=O)Nc3ccc(F)cc32)c1C [Sunitinib] + Cc1cc(Nc2cc(N3CCN(C)CC3)nc(Sc3ccc(NC(=O)C4CC4)cc3)n2)n[nH]1 [Tozasertib] (partner 0.1 µM)
Outline: as §1

Sunitinib + Lapatinib = compound: CCN(CC)CCNC(=O)c1c(C)[nH]c(/C=C2\C(=O)Nc3ccc(F)cc32)c1C [Sunitinib] + CS(=O)(=O)CCNCc1ccc(-c2ccc3ncnc(Nc4ccc(OCc5cccc(F)c5)c(Cl)c4)c3c2)o1 [Lapatinib] (partner 2 µM)
Outline: as §1

Sunitinib + Crizotinib = compound: CCN(CC)CCNC(=O)c1c(C)[nH]c(/C=C2\C(=O)Nc3ccc(F)cc32)c1C [Sunitinib] + C[C@@H](Oc1cc(-c2cnn(C3CCNCC3)c2)cnc1N)c1c(Cl)ccc(F)c1Cl [Crizotinib] (partner 1 µM)
Outline: as §1

| Cell Line | relative viability (Sunitinib + Decitabine; first compound 0.02 µM) | relative viability (Sunitinib + Decitabine; first compound 0.06325 µM) | relative viability (Sunitinib + Decitabine; first compound 0.6325 µM) | relative viability (Sunitinib + Decitabine; first compound 2 µM) | relative viability (Sunitinib + Tozasertib; first compound 0.02 µM) | relative viability (Sunitinib + Tozasertib; first compound 0.06325 µM) | relative viability (Sunitinib + Tozasertib; first compound 0.2 µM) | relative viability (Sunitinib + Tozasertib; first compound 2 µM) | relative viability (Sunitinib + Lapatinib; first compound 0.06325 µM) | relative viability (Sunitinib + Lapatinib; first compound 0.2 µM) | relative viability (Sunitinib + Lapatinib; first compound 0.6325 µM) | relative viability (Sunitinib + Lapatinib; first compound 2 µM) | relative viability (Sunitinib + Crizotinib; first compound 0.02 µM) | relative viability (Sunitinib + Crizotinib; first compound 0.06325 µM) | relative viability (Sunitinib + Crizotinib; first compound 0.2 µM) | relative viability (Sunitinib + Crizotinib; first compound 0.6325 µM) | relative viability (Sunitinib + Crizotinib; first compound 2 µM) | relative viability (Sunitinib + Decitabine; first compound 0.2 µM) | relative viability (Sunitinib + Tozasertib; first compound 0.6325 µM) | relative viability (Sunitinib + Lapatinib; first compound 0.02 µM) |
| --- | --- | --- | --- | --- | --- | --- | --- | --- | --- | --- | --- | --- | --- | --- | --- | --- | --- | --- | --- | --- |
| 201T | 0.838 | 0.91 | 0.872 | 0.88 | 0.918 | 0.948 | 1.1 | 0.88 | 1.08 | 1.02 | 1.05 | 1.04 | 0.981 | 0.978 | 1.03 | 1.02 | 1.06 | – | – | – |
| A-427 | 0.547 | 0.591 | 0.539 | 0.625 | 0.225 | 0.233 | 0.219 | 0.194 | 1.12 | 1.11 | 1.16 | 1.08 | 0.865 | 0.885 | 1.09 | 0.847 | 0.787 | 0.57 | 0.213 | 1 |
| ABC-1 | 1.01 | 0.926 | 1.22 | 0.849 | 0.187 | 0.189 | 0.172 | 0.154 | 1.19 | 1.34 | 1 | 1.19 | 1.08 | 1.12 | 1.03 | 1.03 | 0.739 | 1.07 | 0.18 | 1.18 |
| BEN | 0.698 | 0.766 | 0.62 | 0.715 | 0.526 | 0.426 | 0.576 | 0.466 | 0.754 | 0.675 | 0.673 | 0.618 | 0.835 | 0.956 | 1.18 | 0.93 | 0.955 | 0.7 | 0.61 | 0.651 |
| CAL-12T | – | – | – | – | 0.324 | 0.302 | 0.314 | 0.213 | 0.77 | 0.67 | 0.807 | 0.665 | 0.564 | 0.735 | 0.623 | 0.791 | 0.582 | – | 0.324 | 0.687 |
| COR-L23 | 0.435 | 0.482 | 0.505 | 0.451 | 0.19 | 0.217 | 0.196 | 0.176 | 1.18 | 0.983 | 1.14 | 0.951 | 0.663 | 0.748 | 0.799 | 0.761 | 0.727 | 0.426 | 0.215 | 0.71 |
| COR-L 105 | 0.692 | 0.734 | 0.649 | 0.607 | 0.365 | 0.378 | 0.371 | 0.41 | 0.459 | 0.358 | 0.36 | 0.372 | 0.513 | 0.811 | 0.995 | 0.894 | 0.695 | 0.663 | 0.401 | 0.336 |
| Calu-6 | – | – | – | – | – | – | – | – | 1.16 | 1.28 | 1.18 | 1.19 | 0.711 | 0.772 | 0.852 | 0.932 | 0.79 | – | – | 1.02 |
| ChaGo-K-1 | 0.511 | 0.485 | 0.537 | 0.555 | 0.211 | 0.209 | 0.209 | 0.191 | – | – | – | – | 1.06 | 1.14 | 1.34 | 1.22 | 1.12 | 0.533 | 0.237 | – |
| EBC-1 | – | – | – | – | – | – | – | – | 0.198 | 0.224 | 0.215 | 0.202 | 0.171 | 0.178 | 0.216 | 0.183 | 0.19 | – | – | 0.227 |
| EKVX | 0.352 | 0.384 | 0.382 | 0.412 | 0.411 | 0.39 | 0.476 | 0.366 | 0.227 | 0.193 | 0.233 | 0.241 | 0.966 | 1.14 | 1.22 | – | 0.958 | 0.45 | 0.459 | 0.213 |
| EMC-BAC-2 | 0.94 | 1.02 | – | 1.04 | 0.264 | 0.297 | 0.308 | 0.332 | 0.959 | 1.01 | – | 0.891 | 0.743 | 0.848 | 0.821 | 0.88 | 0.797 | 1.14 | 0.289 | 0.839 |
| EPLC-272H | 0.346 | 0.408 | 0.368 | 0.312 | 0.382 | 0.333 | 0.285 | 0.318 | 1.02 | 1.14 | 0.937 | 0.915 | 0.906 | 0.736 | 0.959 | – | 0.706 | 0.389 | 0.196 | 0.837 |
| H3255 | 0.567 | 0.671 | 0.651 | 0.529 | 0.763 | 0.879 | 0.785 | 0.654 | 0.313 | 0.227 | 0.259 | 0.236 | 0.836 | 0.831 | 0.876 | 1.05 | 0.917 | 0.607 | 0.73 | 0.231 |
| HARA | 0.506 | 0.604 | 0.563 | 0.586 | 0.105 | 0.148 | 0.216 | 0.0991 | 0.813 | 0.881 | 0.729 | 0.801 | 1.02 | 1.11 | 1.41 | 1.19 | – | 0.539 | 0.076 | 0.767 |
| HCC-15 | 0.639 | 0.829 | 0.671 | 0.677 | 0.407 | 0.371 | 0.468 | 0.651 | 0.9 | 0.91 | 0.826 | 0.829 | 0.761 | 0.84 | 0.958 | 0.86 | 0.859 | 0.708 | 0.411 | 0.855 |
| HCC-44 | 0.931 | 1.04 | 0.951 | 0.949 | 0.923 | 1.01 | 1.44 | 0.499 | 1 | 1.09 | 0.985 | – | 0.874 | 0.784 | 0.937 | 0.859 | 0.774 | 0.99 | 1.07 | 1.06 |
| HCC-78 | 0.709 | 0.69 | 0.683 | 0.726 | 0.411 | 0.502 | 0.548 | 0.43 | – | 0.767 | – | 0.893 | 0.299 | – | 0.348 | – | 0.365 | 0.737 | 1.43 | 0.747 |
